Data published in patent publication US6800481B1, “Stable macroscopic membranes formed by self-assembly of amphiphilic peptides and uses therefor” (priority 1992, dated 2004).
Residues, ends and D or L forms follow the SMILES beside them.

Assays:
3T3 fibroblast cells = assay: Cell attachment to biopolymer sheets, with serum or serum-free + cyclohexamide (Table 5); assay type: cell-based, mouse; parameters: key: ++++: strong attachment; +++: moderate attachment; ++: weak attachment; +/−: little or no attachment
Experimental: 3T3 fibroblast cells were introduced to membranes of RAD16 and EAK16 in normal serum-containing medium or in serum-free medium containing 30 μg/ml cyclohexamide (cells used for this condition were pretreated in this medium for 2 hours before plating). Cells were allowed to attach to the membranes for 30 minutes, 1 and 8 hours at 37° C. The attached cells were shaken for 10 minutes on a rotary rocker at 60 r.p.m., then scored under phase contrast microscopy. The decrease in cells attached to the membrane in the serum-free condition reflects cell loss due to serum deprivation.

[1] = test system: NGF differentiated PC12 cells, retonic acid-differentiated human neuroblastoma and mouse cerebellum granule cells; assay: Neurite outgrowth on biopolymers, several neuronal cell types; assay type: cell-based
Description: The invention further relates to the regeneration of nerves with filaments of the membranes of the present invention. Nerve regeneration can be promoted and directed by transplanting filaments of RAD16 along the correct path to their targets. This would be extremely useful for patients with severed peripheral nerves. Such a technology could be refined to help people with spinal cord injuries.

SMILES: CC(=O)N[C@@H](C)C(=O)N[C@@H](CCC(=O)O)C(=O)N[C@@H](C)C(=O)N[C@@H](CCC(=O)O)C(=O)N[C@@H](C)C(=O)N[C@@H](CCCCN)C(=O)N[C@@H](C)C(=O)N[C@@H](CCCCN)C(=O)N[C@@H](C)C(=O)N[C@@H](CCC(=O)O)C(=O)N[C@@H](C)C(=O)N[C@@H](CCC(=O)O)C(=O)N[C@@H](C)C(=O)N[C@@H](CCCCN)C(=O)N[C@@H](C)C(=O)N[C@@H](CCCCN)C(N)=O [EAK16] (Ac-AEAEAKAKAEAEAKAK-NH2)
- cell attachment (3T3 fibroblast cells; 3T3, 30 min, medium with serum, no cyclohexamide): ++++
- cell attachment (3T3 fibroblast cells; 3T3, 30 min, serum-free medium, + cyclohexamide): ++++
- cell attachment (3T3 fibroblast cells; 3T3, 60 min, medium with serum, no cyclohexamide): ++++
- cell attachment (3T3 fibroblast cells; 3T3, 60 min, serum-free medium, + cyclohexamide): ++++
- cell attachment (3T3 fibroblast cells; 3T3, 8 hrs, medium with serum, no cyclohexamide): ++++
- cell attachment (3T3 fibroblast cells; 3T3, 8 hrs, serum-free medium, + cyclohexamide): ++
- neurite outgrowth on biopolymers [1]: not on EAK16-based biopolymers
